Experimental data reported in PMC4446823, “Inhibition of RORγt activity and Th17 differentiation by a set of novel compounds” (BMC Immunology, 2015).
Where two headings read alike, the source gives them in different places.

Assays:
[1] = target: T1, RORγt (Homo sapiens, UniProt P51449); test: Gal4/RORγt-LBD luciferase reporter assay in RORγt-LBD+ Jurkat stable cells; assay type: cell-based; details: RORγt-LBD+ Jurkat cells, 6 h
T1 construct: expressed in transfected cells
T1 sequence (P51449 269-508 limits assumed): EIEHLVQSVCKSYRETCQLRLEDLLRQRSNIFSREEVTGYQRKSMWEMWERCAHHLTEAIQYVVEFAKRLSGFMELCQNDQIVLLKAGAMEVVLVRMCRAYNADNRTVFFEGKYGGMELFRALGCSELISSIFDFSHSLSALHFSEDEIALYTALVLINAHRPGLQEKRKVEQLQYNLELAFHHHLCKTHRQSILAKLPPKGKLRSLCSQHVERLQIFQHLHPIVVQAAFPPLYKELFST
From the text: (§1) The pGL4.31 (luc2P/GAL4UAS/Hygro) and pBIND vectors were obtained from Promega (Madison, WI, USA). An IRES-GFP sequence was first cloned into the pBIND vector. Human RORγt was then amplified using cDNA isolated from human peripheral blood mononuclear cells (PBMCs) (provided by Dr. Hui Zhang) and inserted into the reconstructed pBIND-IRES-GFP vector to generate a Gal4–RORγt-LBD-IRES-GFP fusion sequence. The primers that used to construct the pBIND- Gal4–RORγt-LBD-IRES-GFP plasmid are as follows: RORγt-LBD forward 5′- […]-3′,reverse5′- […] -3′.
A similar procedure was used to generate the Jurkat RORγt -LBD reporter cell line. For this, Jurkat cells (1 × 10^7) were transfected with pGL4.31 reporter plasmid (20 μg) by electroporation (Lonza, Basel, Switzerland) according to the manufacturer’s instructions. The transfected Jurkat cells were selected in RPMI 1640 medium containing 200 μg/mL hygromycin B prior to a second transfection. Stable Jurkat cotransfectants were then sorted based on GFP expression, and yielded a GFP^+ purity >96 % as determined by flow cytometry.
RORγt-LBD^+-Jurkat (2 × 10^4) stable cells were seeded into 96-well round-bottom plates (Corning Inc, Corning, NY) and incubated in RPMI1640 complete medium overnight. Then, Screened compounds (Enamine, Monmouth Junction, NJ) were added to the wells using a Tecan Freedom EVO 150 (Tecan, Männedorf, Switzerland) to a final concentration of 50 μM. Cells were treated with DMSO or 100 nM PMA (Sigma-Aldrich, St. Louis, MO) only for use as negative and positive controls, respectively. After a 6 h treatment period, cells were lysed and assayed for luciferase activity (Promega) following the manufacturer’s instructions.
RORγt-LBD^+-Jurkat cells were seeded into 96-well round-bottom plates (2 × 10^4) and cultured overnight prior to incubation with the screening compounds at 5-fold gradient final concentrations ranging from 5 μM to 8 nM. Cells were lysed 6 h later and assayed for luciferase activity (Promega) using the manufacturer’s instructions. Additionally, the results from the high-throughput screening at 50 μM concentration of candidates were also applied in the calculation of the EC50. The EC50 values were determined by plotting the logarithm of compound concentration versus relative luciferase activity to determine the half-maximal effective concentration (EC50).

[2] = target: T1, RORγt; test: Gal4/RORγt-LBD luciferase reporter assay in RORγt-LBD+ 293 T stable cells; assay type: cell-based; details: RORγt-LBD+ 293 T cells, 5 μM, 6 h
From the text: as §1
The pGL4.31 reporter plasmid (4 μg) was transfected into 293 T cells (1 × 10^6) with Lipofectamine™ 2000 (Invitrogen) according to manufacturer instructions. The transfected cells were then selected in a medium containing 100 μg/mL hygromycin B (Roche, San Francisco, CA, USA) for 3 weeks to obtain a cell population that expressed the pGL4.31 reporter gene. Then, the stable cells were transfected with pBIND-RORγt-LBD-IRES-GFP plasmid (4 μg). The cotransfectants were sorted by green fluorescent protein (GFP) expression, which yielded a RORγt-LBD^+ 293Tstable reporter cell line with >96 % purity as determined by flow cytometry.
RORγt-LBD^+-293 T (1x10^4) stable cells wereseeded into 96-well plates (Corning Inc., Corning, NY)and incubated in DMEM complete medium overnight. Then the candidates were added with a final concentration of 5 μM. […]

[3] = tested on: mouse Th17 cell differentiation; test: In vitro mouse Th17 cell differentiation, mRNA by quantitative PCR; assay type: cell-based; details: 5 μM, Th17-polarizing conditions (TGF-β, IL-6), 4 days, normalized to GAPDH
Procedure: (§2) CD4^+CD25^− T cells were isolated from spleens of 8–12-week-old C57BL/6 mice as follows: single-cell suspensions were made by crushing the spleen through a cell strainer, and red blood cells (RBCs) were lysed with RBC lysis buffer. CD4^+ T cells were then purified using magnetic-activated cell sorting (MACS) column a CD4^+ T cell isolation kit (Miltenyi Biotec, Bergisch Gladbach, Germany) according to the manufacturer’s protocol.
(§3) Spleen cells (3 × 10^6) were stimulated in 6-well plates with 5 μg/mL plate-bound anti-CD3e antibody (eBioscience, San Diego, USA) and 2 μg/mL soluble anti-CD28 antibody (eBioscience) for 24 h. The activated cells were then collected, and seeded into 96-well round-bottom plates (2 × 10^4) for Th17 differentiation in the presence of 5 ng/mL recombinant human TGF-β (R&D Systems, Minneapolis, MN), 30 ng/mL recombinant mouse IL-6 (R&D Systems, Minneapolis, MN), and either the screening compounds (5 μM final concentration) or DMSO as control. After culturing for 2 days, fresh medium (100 uL/well) containing recombinant human TGF-β, recombinant mouse IL-6, and the previously-introduced screening compounds was added to the cells, which were then cultured for additional 2 days.
Total RNA was extracted from splenocytes with TRIzol (Invitrogen) after 5 days in culture. Approximately 1 μg total RNA was added to a 20 μL reaction volume for reverse transcription using the GoScript™ Reverse Transcription System (Promega) according to the manufacturer’s instructions. Synthesized cDNA was then used for real-time quantitative PCR using GoTaq® qPCR Master Mix (Promega). Gene expression of mouse Rorc, Il17a, and Il17f was normalized to that of Gapdh. The following primer sequences were used: Rorc forward 5′-TGTAATGTGG CCTACTCCTGCA-3′, reverse 5′-[…]-3′; Il17a forward 5′- […]-3′, reverse 5′-[…] -3′; Il17f forward 5′-[…]-3′, reverse 5′- […]-3′; Gapdh forward 5′-[…]-3′, reverse 5′-[…]-3′.

[4] = tested on: IL-17A secretion; test: IL-17A secretion by ELISA in culture supernatant under Th17-polarizing conditions; assay type: cell-based; details: mouse CD4+ T cells, compound 5 μM, 5 days
Procedure: as §2, §3
The concentration of IL-17A in the splenocyte supernatant after 5 days in culture was determined using an ELISA kit (CUSABIO, Wuhan, China) according to the manufacturer’s protocol.

[5] = Jurkat cell viability, MTT assay; assay type: cell-based, human; details: human, wild-type Jurkat cells, highest concentration 5 μM
Procedure: (§4) Jurkat cell viability after culturing in the presence of the screened compounds was assessed by MTT assay. In brief, wild type Jurkat cells were seeded (2 × 10^4) and incubated with the compounds in 5-fold gradient dilutions. MTT (dimethylthiazolyl-2-5-diphenyltetrazolium bromide) dye solution (Sigma, St. Louis, MO, USA) was added 48 h later and incubated at 37 °C for 4 h, MTT was reduced by live cells into a colored formazan product. After centrifugation at 1500 rpm for 5 min, the supernatant was discarded and 100 μL DMSO was added to the plate, which was gently shaken for 10 min to dissolve the formazan product. Absorbance at 570 nm wavelength was recorded using Thermo Scientific Multiskan FC (Thermo Scientific, Waltham, MA, USA). Each treatment was repeated in quadruplicate. Cell viabilities were defined relative to control cells treated only with DMSO, with results used as evaluation of cytotoxicity of candidates. The half-maximal cytotoxic concentration (CC50) for each compound was calculated from the dose–response curves with the aid of GraphPad Prism software 5.0 (GraphPad Software, San Diego, CA).

[6] = tested on: wild type Jurkat cells; test: Jurkat cell viability, MTT assay; assay type: cell-based, human; details: 48 h; for reduction of Jurkat cell viability over vehicle control: 5 μM (highest concentration)
Procedure: as §4

[7] = read-out: EC50, inhibition of RORγt activity, Gal4/RORγt-reporter system

Compound	EC50 ([1]; 5 μM to 8 nM, read-out: EC50, relative luciferase activity, Gal4-reporter system)	reduction of RORγt activity in 293 T cells [2]	EC50 [1, 7]	Il17a gene expression compared with vehicle-treated control group [3]	Il17f gene expression compared with vehicle-treated control group [3]	IL-17A concentration in culture supernatant [4]	reduction of IL-17A concentration compared with vehicle-treated control cells [4]	CC50 at 48 h [5]	reduction of Jurkat cell viability over vehicle control [6]	CC50 ([6]; wild-type Jurkat cells, highest concentration 5 μM)
CC1Cc2ccccc2N1S(=O)(=O)c1ccc(Cl)c(C(F)(F)F)c1 (centres unmarked) [744267-30-9, 1-[4-chloro-3-(trifluoromethyl)phenyl] sulfonyl-2-methyl-2,3-dihydroindole, reference compound]	0.723 µM	strongly inhibited								
Cc1cc(NC(=O)NC(c2ccc(C(C)C)cc2)c2cccs2)no1 (centres unmarked) [compound 29, 3-(5-methyl-1,2-oxazol-3-yl) - 1-[(4-propan-2-ylphenyl) - thiophen-2-ylmethyl] urea]			2.1 µM	significantly reduce	significantly reduce	209 pg/mL	44%	> 5 µM	less than 25%	
O=C(c1ccc(C2CCCCC2)cc1)N(CC1CCCO1)C1CCS(=O)(=O)C1 (centres unmarked) [compound 31, 4-cyclohexyl-N-(1,1-dioxothiolan-3-yl) - N-(oxolan-2-ylmethyl) benzamide]			17.5 µM	significantly reduce	significantly reduce	226 pg/mL	39%		less than 25%	
CCc1nnc(NC(=O)C2(S(=O)(=O)c3ccc(C)c(C)c3)CCCC2)s1 [compound 35, 1-(3,4-dimethylphenyl) sulfonyl-N-(5-ethyl-1,3,4-thiadiazol-2-yl) cyclopentane-1-carboxamide]			28 µM	significantly reduce	significantly reduce				less than 25%	
CCCc1cc(C(=O)OCC(=O)NC(=O)NC2CCCC2)sc1C [compound 36, 2- Thiophenecarboxylic acid, 5-methyl-4-propyl-,2-[[(cyclopentylamino)carbonyl]amino] - 2-oxoethyl ester]			4.2 µM	significantly reduce	significantly reduce	189 pg/mL	49%		about 50%	> 5 µM
